Measurements published in US20250025438A1, “Derivative of aspartic acid and use thereof in treatment of metabolic diseases such as hepatic fibrosis and non-alcoholic hepatitis” (SHENZHEN JINGTAI TECHNOLOGY CO., LTD., priority 2021, published 2025).
Counter-ions that a name gives are not always drawn. Like-named read-outs stand apart in the source and are kept apart here.

Columns and labels:
[1] = tested on: NS3TP1; assay: NS3TP1 expression in liver tissue of CCl4 liver fibrosis mice; type: in vivo, C57BL/6 wild-type mice; settings: CCl4-induced mice, different doses by gavage, vs untreated group, FIG. 5
Experimental: Long-term intraperitoneal injection of carbon tetrachloride (CCl4) induced reversible liver fibrosis, which was often used to screen and evaluate anti-hepatic fibrosis drugs. C57BL/6 wild-type mice were randomly divided into control group, carbon tetrachloride group and treatment group. The treatments were as follows:
Mice in the carbon tetrachloride group: The animals were intraperitoneally injected with carbon tetrachloride in a total amount of 0.5 μL/g, diluted with corn oil to 10 μL/g, 3 times/week. […]

[2] = Pharmacokinetic testing in rats; type: in vivo, SD rats
Experimental: Rats were used as test animals to study the pharmacokinetic behavior of the following compounds in rat plasma.
The drugs were self-made according to the examples of the present invention.
SD rats, 6-8 weeks old, 3 for each administration method/example, male.
The animals were fasted overnight, ate food 8 hours after taking the drug, and drank water freely.
Blood was collected before administration and at 5 min, 15 min, 30 min, 1 hr, 2 hr, 4 hr, 8 hr and 24 hr after administration.
The blood was placed on wet ice and centrifuged to obtain plasma sample (2000 g, 5 min at 4° C.).
The LC-MS/MS method was used to determine the blood drug concentration. The HPLC conditions were: mobile phase A: H2O-0.5% FA; mobile phase B: ACN-0.5% FA;
WinNonlin 8.2 non-compartmental model was used to estimate pharmacokinetic parameters (PK parameters, including but not limited to peak concentration (Cmax), time to peak (Tmax), terminal elimination rate (Ke), terminal elimination half-life (T1/2), area under drug-time curve (AUC), clearance rate (CL), apparent volume of distribution (Vd), mean residence time (MRT), bioavailability (F), etc.).

[3] = tested on: FN; assay: Semi-activated LX2 cells, Western blot: FN protein; type: cell-based; settings: 50-400 μM, 48 hours, FIG. 3, vs 50 μM aspartic acid
[4] = tested on: α-SMA; assay: Activated LX2 cells (TGFβ1), Western blot: α-SMA; type: cell-based; settings: LX2 cells stimulated with TGFβ1 (5 ng/mL), 24 hours, FIG. 4
[5] = male, SD, rat, plasma, PO 20 mg/kg

| Compound | expression of NS3TP1 in the liver tissue of mice [1] | AUC compared with rats administrated with aspartic acid ([2]; PO 20 mg/kg) | Cmax compared with rats administrated with aspartic acid ([2]; PO 20 mg/kg) | Tmax compared with rats administered with aspartic acid ([2]; PO 20 mg/kg) | Cmax ([2]; male, SD, rat, plasma, Compound 6 IV 10 mg/kg, read-out: Cmax of Compound 6) [µg/mL] | Cmax ([2]; male, SD, rat, plasma, Compound 6 PO 40 mg/kg, read-out: Cmax of Compound 6) [µg/mL] | AUC(0-t) [2, 5] [µg·h/mL] | Tmax [2, 5] [min] | Cmax ([2]; male, SD, rat, plasma, PO 20 mg/kg, read-out: Cmax) [µg/mL] | inhibitory effect on FN protein expression as compared to ASP [3] | expression of α-SMA in the cells [4] |
| --- | --- | --- | --- | --- | --- | --- | --- | --- | --- | --- | --- |
| COC(=O)C[C@H](N)C(=O)O [Compound 6] | gradually increased in a dose-dependent manner | significantly higher | significantly higher | significantly smaller | 6.1 | 22.5 | 71.3 | 30 | 14.8 | – | – |
| COC(=O)C[C@H](N)C(=O)OCOC(=O)[C@@H](N)CC(=O)OC [Compound 54, 4-dimethyl O′1,01-methylene (2S,2'S)-bis (2-aminosuccinate) hydrochloride] | – | – | – | – | – | – | – | – | – | stronger inhibitory effects | significantly decreased |
